In patent US20250288571A1 (Nested Therapeutics, Inc., priority 2024, published 2025):

Key:
IPC298 cells = assay: IPC298 Cell Titer Glow assay (CTG); settings: Homo sapiens, IPC-298, 72 h, read-out: CTG IC50 (nM) Cell Line: IPC298.2
Experimental: HCT116 and IPC298 Cell Titer Glow Assay (CTG)
HCT116 cells and IPC298 cells were diluted with culture medium to the desired density 500 cells/well and 40 μL of cell suspension were added into each well of 384-well cell culture plate. […] The plates were covered and stored at room temperature for 30 minutes without shaking and then the plates were transferred into a 37° C. 5% CO2 incubator overnight.
A 10 mM solution in dimethyl sulfoxide (DMSO) was prepared for each test compound. A 3 fold, 10-point dilution was prepared from the stock solution. 40 nl of each solution in 100% DMSO was added to the 384-well plate and diluted to a final 0.1% DMSO final concentration. The plates were then incubated for 72 hours (for both cell lines) at 37° C.
CellTiter-Glo® 2.0 Reagent (Promega, G9242) was removed from the refrigerator and equilibrated at room temperature (23° C.) for 60 minutes. The plates were then removed from the incubator and allowed to equilibrate to room temperature. 30 μL CellTiter-Glo® 2.0 Reagent were added to the assay plates, and spun 1 min/1000 rpm. The plates were allowed to stand for about 20 minutes before being read on Envision using a standard luminescence readout. DMSO was employed as negative control (High control, HC) and 1 uM Staurosporine was employed as positive control (Low control, LC).
The percent (%) inhibition at each concentration of compound was calculated based on the signal in the negative and positive control wells contained within each assay plate.

pERK Thr202/Tyr204 [1] = assay: pERK HTRF detection of pERK Thr202/Tyr204, A549 cells; type: cell-based; settings: Homo sapiens, 2 h compound
Experimental: (§1) pERK: Detection of pERK Thr202/Tyr204
(§2) A549 cultured in F-12K/10% FBS were seeded at 10000 cells/well, and HCT116 cultured in McCoy's 5A/10% FBS were seeded at 15000 cells/well cells into Corning 384-well plates, respectively. Cells were incubated overnight in a TC incubator. Compounds were serially diluted and added to cells for 2 h in a TC incubator. Cells were then lysed according to manufacture protocol (Cisbio CAT #: 64AERPEG). Cell lysate was mixed with phospho-ERK (Thr202/Tyr204) antibody solution at 5:1 (v:v). Lysate and antibody mixture were incubated overnight at room temperature. HTRF signal was read at two different wavelengths (665 nm and 620 nm) on a compatible HTRF reader.

pERK Thr202/Tyr204 [2] = assay: pERK HTRF detection of pERK Thr202/Tyr204, HCT116 cells; type: cell-based; settings: Homo sapiens, HCT-116, 2 h compound
Experimental: as §1, §2

HCT116 cells = assay: HCT116 Cell Titer Glow assay (CTG); settings: Homo sapiens, HCT-116, 72 h; for IC50: read-out: CTG IC50 (nM) Cell Line: HCT116.20
pMEK [3] = assay: pMEK AlphaLISA (MEK1 pS218/222), A549 cells, EGF stimulated; type: cell-based; settings: Homo sapiens, 2 h compound, EGF 30 ng/ml 15 min
Experimental: (§3) Determination of pMEK IC50s
(§4) A549 cells were cultured in F12K/10% FBS media (ATCC CAT #21127022) and were seeded at 10000 cells/well and HCT116 cells were cultured in McCoy's 5A/10% FBS media (Gibco Cat #30-2007) were seeded at 15000 cells/well in 384 microplates (Corning CAT #3765). Cells were incubated overnight in a TC incubator. Compounds were serially diluted and added to cells for 2 h in a TC incubator. At the end of the 2 h EGF (R&D Systems 236-EG-200) was added at a final EGF concentration of 30 ng/ml and incubated for 15 minutes at 37° C. in a TC incubator. AlphaLisa (Perkin Elmer) was performed according to manufacturer's instructions (Perkin Elmer CAT #ALPHA.SF ULTRA MEK1 PS218/222). The percent (%) inhibition at each concentration of compound is calculated based on and relative to the AlphaLISA signal in the HPE and ZPE control wells contained within each assay plate. The ZPE control wells contain cells and DMSO as 0% inhibition, and the HPE control wells only contain cells and control compound (Sellekchem Staurosporin CAT #S1421) as 100% inhibition.

pMEK [4] = assay: pMEK AlphaLISA (MEK1 pS218/222), HCT116 cells, EGF stimulated; type: cell-based; settings: Homo sapiens, HCT-116, 2 h compound, EGF 30 ng/ml 15 min
Experimental: as §3, §4

SMILES | IC50 (IPC298 cells) [nM] | IC50 (pERK Thr202/Tyr204 [1]) [nM] | IC50 (pERK Thr202/Tyr204 [2]) [nM] | IC50 (HCT116 cells) [nM] | IC50 (pMEK [3]) [nM] | IC50 (pMEK [4]) [nM] | viability at 1000 µM (HCT116 cells; read-out: CTG % cell viability 1000 uM HCT116.20, HCT116 cells, 72 hours, 1000 uM, percent cells remaining after treatment) [%]
CNS(=O)(=O)Nc1nccc(Cc2cncc(Nc3ccc(Br)cc3F)c2C)c1F [Example 1, N-(4-bromo-2-fluorophenyl)-5-({3-fluoro-2-[(methylsulfamoyl)amino]pyridin-4-yl}methyl)-4-methylpyridin-3-amine] | < 10 | < 10 | < 10 | < 10 | < 10 | < 10 | –
CNS(=O)(=O)Nc1ccc(Cc2cncc(Nc3ccc(Br)cc3F)c2C)cc1 [Example 5, N-(4-bromo-2-fluorophenyl)-4-methyl-5-({4-[(methylsulfamoyl)amino]phenyl}methyl)pyridin-3-amine] | < 10 | < 10 | < 10 | 10 to 100 | < 10 | < 10 | –
CCc1ccc(Nc2cncc(Cc3ccnc(NS(=O)(=O)NC)c3F)c2C)c(F)c1 [Example 10, N-(4-ethyl-2-fluorophenyl)-5-({3-fluoro-2-[(methylsulfamoyl)amino]pyridin-4-yl}methyl)-4-methylpyridin-3-amine] | < 10 | < 10 | < 10 | < 10 | < 10 | < 10 | –
CNS(=O)(=O)Nc1nccc(Cc2cncc(Nc3ccc(C#N)cc3F)c2C)c1F [Example 11, 3-fluoro-4-{[5-({3-fluoro-2-[(methylsulfamoyl)amino]pyridin-4-yl}methyl)-4-methylpyridin-3-yl]amino}benzonitrile] | 10 to 100 | < 10 | < 10 | – | 10 to 100 | < 10 | 31.8
